From patent US11370769B2, “TRPC5 inhibitors and methods of using same” (BOARD OF REGENTS OF THE UNIVERSITY OF NEBRASKA, priority 2017, dated 2022)
Values belong to the compound of their own block, whether it stands above or below them.

What was measured:
TRPC5 = target: T1, TRPC5 (Homo sapiens, UniProt Q9UL62); assay: Syncropath % inhibition TRPC5; type: cell-based; details: read-out: Syncropath % inhibition TRPC5 @3 μM; heading: Syncropath % inhibition TRPC5 @3
T1 construct: expressed in transfected cells; host or cells: HEK293
T1 sequence (Q9UL62 1-973): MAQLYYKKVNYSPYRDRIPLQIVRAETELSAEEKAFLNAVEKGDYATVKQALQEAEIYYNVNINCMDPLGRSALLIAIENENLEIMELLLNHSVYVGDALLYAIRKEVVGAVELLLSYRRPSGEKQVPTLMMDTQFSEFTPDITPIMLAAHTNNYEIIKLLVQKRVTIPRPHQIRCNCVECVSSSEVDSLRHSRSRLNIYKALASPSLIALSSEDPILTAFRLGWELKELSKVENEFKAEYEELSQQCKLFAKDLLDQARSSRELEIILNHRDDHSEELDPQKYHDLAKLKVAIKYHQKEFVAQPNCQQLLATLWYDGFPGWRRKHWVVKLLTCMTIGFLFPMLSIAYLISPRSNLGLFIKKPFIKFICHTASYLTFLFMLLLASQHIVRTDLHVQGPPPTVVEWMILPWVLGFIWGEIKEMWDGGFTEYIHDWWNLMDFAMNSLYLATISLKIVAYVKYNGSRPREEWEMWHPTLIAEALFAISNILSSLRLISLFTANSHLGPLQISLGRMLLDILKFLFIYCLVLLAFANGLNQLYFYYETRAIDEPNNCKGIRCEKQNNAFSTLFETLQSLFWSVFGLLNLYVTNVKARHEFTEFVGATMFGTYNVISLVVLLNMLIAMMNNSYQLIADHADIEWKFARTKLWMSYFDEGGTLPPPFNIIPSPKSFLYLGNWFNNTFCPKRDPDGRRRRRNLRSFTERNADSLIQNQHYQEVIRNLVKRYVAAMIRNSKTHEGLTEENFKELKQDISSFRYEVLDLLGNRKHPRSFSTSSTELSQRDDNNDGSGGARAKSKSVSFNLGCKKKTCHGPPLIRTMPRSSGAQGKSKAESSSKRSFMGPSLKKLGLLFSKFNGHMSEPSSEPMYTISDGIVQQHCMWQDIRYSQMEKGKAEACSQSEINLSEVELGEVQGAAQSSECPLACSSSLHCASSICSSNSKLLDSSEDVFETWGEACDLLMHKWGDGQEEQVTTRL

podocytes = assay: ROS assay in wild-type podocytes treated with AngII; type: cell-based, mouse; details: WT podocytes, AngII 10 μM, 30 μM compound, 3 hours
Description: (§1) Podocyte culture and viral transduction: Immortalized mouse podocytes were cultured as previously described (10, 11). Podocyte viral transduction was performed using lentivirus as previously described (10, 11). Briefly, lentivirus production was carried out in HEK293T cells at 60% confluence, and viral particles were collected two days after transfection and purified by centrifugation at 1,000 rcf for 5 min. Purified lentivirus was frozen at −80° C. until further use. Podocytes were transduced with lentivirus after 7 days of differentiation, and assays were performed 5 days after viral transduction.
ROS and cell viability assays: For ROS experiment in FIG. 4A, mature podocytes were cultured as previously described. Cells were incubated with CellRox Deep Red reagent (ThermoFisher) for 30 min at 37° C. Then cells were treated with DMSO, 10 μM angiotensin II, 10 μM angiotensin II with 30 μM AC1903, or 10 μM angiotensin II with 30 μM N-acetyl-L-cysteine (NAC) for 3 hours at 37° C. Cells were washed with PBS twice and fluorescence images were observed using Olympus IX71 microscopy. Fluorescence intensities were then analyzed using ImageJ software.

caAT1R podocytes [1] = assay: ROS assay in caAT1R expressing podocytes; type: cell-based, mouse; details: 30 μM ML204, 30 μM AC1903 or 50 μM NSC23677 for 36 hours
Description: as §1
(§2) For experiments in FIG. 4B/C, pCDNA3.1 AT1AR-Δ324 (rat AT1R NM_030985.4) containing HA tag (Plasmid #45635, Addgene) underwent site directed mutagenesis (Agilent) to generate the N111S substitution. For FIG. 4B, differentiated podocytes were transduced with the AT1A-N111S/Δ324 construct in six-well plates. Six days after viral transduction, cells were treated with either vehicle, 30 μM ML204, 30 μM AC1903 or 50 μM NSC23677 for 36 hours. Intracellular production of ROS was measured using a cell-permeable fluorescent dye, 5-(and-6)-chloromethyl-2′,7′-dichlorodihydrofluorescein diacetate, acetyl ester (CM-H2DCFDA, Molecular Probes). Cells were incubated with 5 μM CM-H2DCFDA at 37° C. for 45 min in Hanks' balanced salt solution (HBSS). Cells were then collected, resuspended in HBSS, stained with propidium iodide and the fluorescence intensity was assessed by flow cytometry using MACSQuant Analyzer (Miltenyi Biotec, Bergisch Gladbach, Germany). Living cells, which were PI negative, were selected by FACS gating and the fluorescence of CM-H2DCFDA was recorded on the FL-1 channel (525 nm). For FIG. 4C, differentiated podocytes were transduced with the AT1A-N111S/Δ324 construct in 96 well plates. Six days after transduction, the cells were treated with either vehicle, 30 μM ML204, 30 μM AC1903 or 50 μM NSC23677 for 36 hours. […]

caAT1R podocytes [2] = assay: Cell viability assay in podocytes expressing caAT1R; type: cell-based, mouse; details: 30 μM ML204, 30 μM AC1903 or 50 μM NSC23677 for 36 hours
Description: as §1, §2

- inhibition at 3 µM (TRPC5): 88.7%
Structure (SMILES): Fc1ccc(Cc2c(NCc3ccco3)nc3ccccn23)cc1 [Compound 5, 3-(4-fluorobenzyl)-N-(furan-2-ylmethyl)imidazo[1,2-a]pyridin-2-amine]

- inhibition at 3 µM (TRPC5): 33.4%
Structure (SMILES): c1ccc(Cc2c(N3CCCC3)nc3ccccn23)cc1 [Compound 7, 3-benzyl-2-(pyrrolidin-1-yl)imidazo[1,2-a]pyridine]

Structure (SMILES): CC(=O)N[C@@H](CS)C(=O)O [NAC, N-acetyl-L-cysteine, reference compound]
- AngII-induced ROS (podocytes): rescued podocytes from AngII-induced ROS

Structure (SMILES): CCN(CC)CCSc1c2ccc(Cl)cc2nc2ccc(OC)cc12.Cl [NSC23677]
- caAT1R-induced ROS generation (caAT1R podocytes [1]): blocked caAT1R-induced ROS generation
- podocyte cell death on caAT1R expression (caAT1R podocytes [2]): protected from cell death
